Columns and labels:
E. faecalis VE14089 = assay: Agar well diffusion assay; assay type: cell-based, Enterococcus faecalis; conditions: estimated from halo diameter by nisin standard curve, relative to wt
Protocol: (§1) L. lactis strains were cultured in M17 broth supplemented with 0.5% (w/v) glucose (GM17) or GM17 agar for genetic manipulation or in minimal expression medium (MEM) for protein expression at 30°C (Rink et al., [2005]). E. faecalis, S. aureus, S. pneumonia, and L. monocytogenes were grown in GM17 at 37°C or GM17 agar at different temperatures for agar diffusion assay. M. luteus was grown in Luria-Bertani broth shaken (200 rpm) at 30°C or LB agar at 20°C for agar diffusion assay. Bacillus strains were cultured in Brain Heart Infusion (BHI) shaken (200 rpm) or BHI agar at different temperatures for agar diffusion assay.
(§2) For the agar well diffusion assay, the same cultures as in the MIC value test were used and diluted 200 times with solid media. Identical sizes of wells (7.5 mm diameter) were made and 2 μg of hinge region analogs dissolved in 20 μl 0.05% acetic acid were added. The plates were incubated at different temperatures for at least 1 day until apparent halos appeared. For activity test at low temperature, the indicators were diluted in the same way but poured into smaller plates (52 mm diameter). The plates were incubated at 4°C overnight before the peptides were added. B. sporothermodurans IC4 and B. cereus 4153 were first incubated with the peptides at 4°C for 2 weeks then moved to 30°C and incubated overnight. The diameters of the halos were measured.
(§3) The antimicrobial activity of the hinge region analogs in solid media were tested by an agar well diffusion assay. The diameters of the halos were measured and the residual activity of the analogs were estimated according to the formula of the relationship between the concentration of nisin and the sizes of halos. We made use of the fact that the size of the halo is directly related to the log of nisin concentration. Of course this is an estimate of activity of the variants because any changes in diffusion of the variant bacteriocin or growth rates of indicator bacteria during the assay could also affect the size of the halo. (Table 5 and Supplementary Figure 1). The plates were shown in supplementary data (Supplementary Figures 2–8). […] And against L. lactis at 20°C, the inhibition zone was larger than nisin. […] The M. luteus grows quite fast at room temperature and only the +2 variant retained 55% of the activity of nisin. […]
(§4) To evaluate the activity of nisin on the agar plate, an agar well diffusion assay with gradient of nisin against Lactococcus lactis ( with two plasmids) was performed ( Supplementary Figur e 1 A). The diameter of the halos were measured (Supplementary Figure 1B). […]
(§5) the concentration of nisin is in liner relationship with diameter of the halos ( Supplementary Fi g u re 1C). According to the formula (1) , the relative activity of the peptides compared to nisin can be calculated b y the formula ( 2) .
(§6) Supplementary Figure 1. Relationship between concentration of nisin and diameter of the halos. (A) Agar well diffusion assay. Gradient concentration of nisin were made and dissolved in 30µl 0.05% acetic acid. Lactococcus lactis ( with two plasmids) was cultured overnight and diluted 250 times with GM17 agar before added to the plate. The final concentration of the cells was about 2×10^6 cells/milliliter. The plate was incubated for 1 da y. Concentrations of nisin were labeled. (B) log10 of the concentrati ons and diameters of the halo. (C) A linear curve w as made betw een t he diameters of the halo and log10s of the concentration of nisin.
(§7) (1 picture or pasted object on this page, not shown here)
(§8) Last Name a uthor 1 et al. Running Title
(§9) C = concentration of nisin d° = diameter of the halo of wild t ype […]

S. aureus = assay: Agar well diffusion assay; assay type: cell-based, Staphylococcus aureus; conditions: 20 °C; estimated from halo diameter by nisin standard curve, relative to wt
Protocol: as §1, §2, §3, §4, §5
as §6, with “nisin. […]” for “nisin.”

M. luteus = assay: Agar well diffusion assay; assay type: cell-based, Micrococcus luteus; conditions: 20 °C; estimated from halo diameter by nisin standard curve, relative to wt
Protocol: as §1, §2, §3, §4, §5
as §6, with “nisin. […]” for “nisin.”

Bacillus cereus 4153 = assay: MIC in liquid culture; assay type: cell-based; conditions: MIC value of nisin divided by that of the analog
Protocol: as §1
(§10) The indicator strains were cultured until OD (600 nm) reached 0.5. Before MIC value test, the culture was diluted 1000 times to make the concentration of cells around 5 × 10^5 per milliliter. The test was performed using a temperature controlled plate reader [Tecan200 (Tecan Group AG)] and 96 well plate (Greiner Bio-one). 180 μl indicator strain culture mixed with 20 μl hinge region analogs with final concentration from 0.031 μg/ml–32 μg/ml was incubated at 30°C or 37°C for 18 h. OD (600 nm) was checked every 30 min. For aerobic strains, 2 min of shaking was performed before every check. The concentration of peptide without observed growth of indicator strains was considered as the MIC value.

[1] = test system: Streptococcus pneumoniae R6; assay: MIC in liquid culture; assay type: cell-based; conditions: MIC value of nisin divided by that of the analog
Protocol: as §1, §10

Staphylococcus aureus = assay: MIC in liquid culture; assay type: cell-based; conditions: MIC value of nisin divided by that of the analog
Protocol: as §1, §10

Listeria monocytogenes = assay: MIC in liquid culture; assay type: cell-based; conditions: MIC value of nisin divided by that of the analog
Protocol: as §1, §10

Bacillus cereus 4147 = assay: MIC in liquid culture; assay type: cell-based; conditions: MIC value of nisin divided by that of the analog
Protocol: as §1, §10

Micrococcus luteus = assay: MIC in liquid culture; assay type: cell-based; conditions: MIC value of nisin divided by that of the analog
Protocol: as §1, §10

[2] = test system: Bacillus cereus (L′29) 16; assay: MIC in liquid culture; assay type: cell-based; conditions: MIC value of nisin divided by that of the analog
Protocol: as §1, §10

[3] = test system: Lactococcus lactis MG1363; assay: MIC in liquid culture; assay type: cell-based; conditions: MIC value of nisin divided by that of the analog
Protocol: as §1, §10

L. monocytogenes = assay: Agar well diffusion assay; assay type: cell-based, Listeria monocytogenes; conditions: estimated from halo diameter by nisin standard curve, relative to wt
Protocol: as §1, §2, §3, §4, §5, §6, §7, §8, §9

L. lactis MG1363 = assay: Agar well diffusion assay; assay type: cell-based, Lactococcus lactis; conditions: relative to wt
Protocol: as §1, §2, §3, §4, §5, §6, §7, §8, §9

[4] = test system: Enterococcus faecalis VE14089; assay: MIC in liquid culture; assay type: cell-based; conditions: MIC value of nisin divided by that of the analog
Protocol: as §1, §10

[5] = test system: Bacillus sporothermodurans IC4; assay: MIC in liquid culture; assay type: cell-based; conditions: MIC value of nisin divided by that of the analog
Protocol: as §1, §10

[6] = 20 °C, estimated from halo diameter by nisin standard curve (halo diameter vs log of nisin concentration)

How did the Residual activity (E. faecalis VE14089; 20 °C) turn out when `C=C(NC(=O)[C@@H](NC(=O)[C@H](Cc1c[nH]cn1)NC(=O)[C@@H](NC(=O)[C@H](CO)NC(=O)[C@@H]1CS[C@@H](C)[C@H]2NC(=O)[C@H](C)NC(=O)[C@H](NC(=O)[C@H](CCCCN)NC(=O)[C@H](CCSC)NC(=O)[C@H](CC(C)C)NC(=O)[C@H](CC(N)=O)NC(=O)[C@@H]3CS[C@@H](C)[C@@H](NC(=O)[C@H](CCCCN)NC(=O)[C@@H]4CS[C@@H](C)[C@@H](NC(=O)[C@@H]5CSC[C@@H](NC(=O)/C(=C/C)NC(=O)[C@@H](N)[C@@H](C)CC)C(=O)N[C@@H]([C@@H](C)CC)C(=O)NC(=C)C(=O)N[C@@H](CC(C)C)C(=O)N5)C(=O)N5CCC[C@H]5C(=O)NCC(=O)N4)C(=O)NCC(=O)N[C@@H](C)C(=O)N[C@@H](CC(C)C)C(=O)N[C@@H](CCSC)C(=O)NCC(=O)N3)[C@H](C)SC[C@H](NC2=O)C(=O)N[C@@H](Cc2c[nH]cn2)C(=O)N1)[C@@H](C)CC)C(C)C)C(=O)N[C@@H](CCCCN)C(=O)O` [+1] was run?
Its Residual activity is 72%.

And the Residual activity (E. faecalis VE14089; 37 °C)?
Its Residual activity is 82%.

And the Residual activity (S. aureus)?
Its Residual activity is 27%.

And the Residual activity (M. luteus)?
Its Residual activity is 9%.

And the “Residual activity of variants compared to nisin” value (Bacillus cereus 4153)?
The value was 25%.

And the “Residual activity of variants compared to nisin” value [1]?
Its value is 17%.

What about the “Residual activity of variants compared to nisin” value (Staphylococcus aureus) of the same compound?
The value was 6%.

What about the “Residual activity of variants compared to nisin” value (Listeria monocytogenes) of the same compound?
The value was 25%.

And the “Residual activity of variants compared to nisin” value (Bacillus cereus 4147)?
Its value is 25%.

And the “Residual activity of variants compared to nisin” value (Micrococcus luteus)?
Its value is 25%.

And the “Residual activity of variants compared to nisin” value [2]?
Its value is 25%.

What about the “Residual activity of variants compared to nisin” value [3] of the same compound?
The value was 25%.

What about the Residual activity (L. monocytogenes; 20 °C) of the same compound?
Its Residual activity is 72%.

What about the Residual activity (L. lactis MG1363; [6]) of the same compound?
Its Residual activity is 122%.

How did the Residual activity (E. faecalis VE14089; 20 °C) turn out when `C=C(NC(=O)[C@@H](NC(=O)[C@H](Cc1c[nH]cn1)NC(=O)[C@@H](NC(=O)[C@H](CO)NC(=O)[C@@H]1CS[C@@H](C)[C@H]2NC(=O)[C@H](C)NC(=O)[C@H](NC(=O)[C@H](CC(N)=O)NC(=O)[C@@H]3CS[C@@H](C)[C@@H](NC(=O)[C@H](CCCCN)NC(=O)[C@@H]4CS[C@@H](C)[C@@H](NC(=O)[C@@H]5CSC[C@@H](NC(=O)/C(=C/C)NC(=O)[C@@H](N)[C@@H](C)CC)C(=O)N[C@@H]([C@@H](C)CC)C(=O)NC(=C)C(=O)N[C@@H](CC(C)C)C(=O)N5)C(=O)N5CCC[C@H]5C(=O)NCC(=O)N4)C(=O)NCC(=O)N[C@@H](C)C(=O)N[C@@H](CC(C)C)C(=O)N[C@@H](CCSC)C(=O)NCC(=O)N3)[C@H](C)SC[C@H](NC2=O)C(=O)N[C@@H](Cc2c[nH]cn2)C(=O)N1)[C@@H](C)CC)C(C)C)C(=O)N[C@@H](CCCCN)C(=O)O` [−2] was run?
The Residual activity was 36%.

What about the Residual activity (E. faecalis VE14089; 30 °C) of the same compound?
The Residual activity was 77%.

And the Residual activity (E. faecalis VE14089; 37 °C)?
Its Residual activity is 76%.

What about the Residual activity (S. aureus) of the same compound?
The Residual activity was 16%.

And the Residual activity (M. luteus)?
Its Residual activity is 0%.

And the “Residual activity of variants compared to nisin” value (Bacillus cereus 4153)?
Its value is less than 13%.

What about the “Residual activity of variants compared to nisin” value [1] of the same compound?
The value was 13%.

What about the “Residual activity of variants compared to nisin” value (Staphylococcus aureus) of the same compound?
The value was less than 3%.

What about the “Residual activity of variants compared to nisin” value (Listeria monocytogenes) of the same compound?
The value was less than 25%.

What about the “Residual activity of variants compared to nisin” value [4] of the same compound?
Its value is less than 6%.

What about the “Residual activity of variants compared to nisin” value (Bacillus cereus 4147) of the same compound?
Its value is less than 13%.

And the “Residual activity of variants compared to nisin” value (Micrococcus luteus)?
The value was less than 25%.

What about the “Residual activity of variants compared to nisin” value [2] of the same compound?
The value was less than 13%.

And the “Residual activity of variants compared to nisin” value [5]?
Its value is 13%.

And the “Residual activity of variants compared to nisin” value [3]?
The value was 6%.

And the Residual activity (L. monocytogenes; 20 °C)?
Its Residual activity is 82%.

And the Residual activity (L. monocytogenes; 30 °C)?
The Residual activity was 76%.

What about the Residual activity (L. lactis MG1363; [6]) of the same compound?
The Residual activity was 120%.

What about the Residual activity (L. lactis MG1363; 30 °C, estimated from halo diameter by nisin standard curve) of the same compound?
Its Residual activity is 91%.

— publication PMC4310329, “The length of a lantibiotic hinge region has profound influence on antimicrobial activity and host specificity” (Frontiers in Microbiology, 2015)
